Test results as given in patent US7365049B2, “Afamin-containing compositions and methods of use” (Vitateg Biotechnology GmbH, priority 2001, dated 2008).
Entries after “also recorded” stand apart in the source; their conditions may differ.

T1: Afamin (Homo sapiens, UniProt P43652)
T1 sequence (P43652 22-599): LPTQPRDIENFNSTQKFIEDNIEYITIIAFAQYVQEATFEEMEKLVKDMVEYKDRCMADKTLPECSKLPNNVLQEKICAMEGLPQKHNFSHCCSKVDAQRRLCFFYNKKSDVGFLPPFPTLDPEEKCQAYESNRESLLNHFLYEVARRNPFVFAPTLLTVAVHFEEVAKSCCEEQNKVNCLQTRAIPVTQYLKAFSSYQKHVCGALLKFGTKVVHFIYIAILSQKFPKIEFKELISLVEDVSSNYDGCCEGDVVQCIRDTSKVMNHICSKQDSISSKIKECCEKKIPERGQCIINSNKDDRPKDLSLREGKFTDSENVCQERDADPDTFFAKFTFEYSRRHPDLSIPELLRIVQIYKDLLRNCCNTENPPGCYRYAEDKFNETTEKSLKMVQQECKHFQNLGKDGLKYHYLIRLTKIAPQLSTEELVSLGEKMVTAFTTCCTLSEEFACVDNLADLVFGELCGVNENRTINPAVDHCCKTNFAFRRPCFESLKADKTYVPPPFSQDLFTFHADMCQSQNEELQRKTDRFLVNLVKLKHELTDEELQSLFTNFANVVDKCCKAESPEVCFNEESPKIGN


Columns and labels:
[1] = test system: isolated cortical neurons of chicken embryos; experiment: Low serum assay (2% serum), MTT viability of isolated cortical neurons; assay type: cell-based; conditions: partial serum withdrawal to 2%, FIG. 2a
Method: (§1) The neuroprotective effect of Afamin was examined by assaying isolated cortical neurons of chicken embryos. The effect of Afamin was tested in a low-serum assay and in two lesion assays, namely in a β-amyloid and a H2O2-lesion assay.
(§2) After the low serum assay or the lesion assay, the MTT assay is used to check the viability of neuronal cells (MTT=3-(4,5-dimethylthiazol-2-yl)-2,5-[…]). This is a suitable model which is extremely reproducible. The test also allows for assaying a large number of samples, and dose-dependent differences in the activity of a substance can be evaluated.
(§3) The neuronal viability of cells in vitro can be determined by means of this […] MTT test. The MTT assay is based on the metabolic reduction of MTT, a substance of yellow color, to dark-blue formazane crystals by mitochondrial dehydrogenases (e.g. succinate dehydrogenase). The crystals are dissolved, and the spectrometric absorption is measured at a suitable wave length.
(§4) In detail, isolated cortical neurons of 8- (lesion assays) or 9- (low serum assay) day-old chicken embryos (White Leghorn or Lohman Brown Hybrid strain) were used.
(§5) The neurons were prepared by breaking ethanoltreated eggs and putting the embryos into a plastic dish. […]
(§6) At the end of each experiment, the viability of the cultures was tested by means of the MTT assay with a plate reader at 570 nm.

[2] = test system: isolated cortical neurons of chicken embryos; experiment: H2O2-lesion assay, MTT viability of isolated cortical neurons; assay type: cell-based; conditions: 100 μM H2O2 for 24 h, FIG. 2b
Method: After the low serum assay or the lesion assay, the MTT assay is used to check the viability of neuronal cells (MTT=3-(4,5-dimethylthiazol-2-yl)-2,5-diphenyltriazolium bromide).
The neuronal viability of cells in vitro can be determined by means of this calorimetric MTT test. The MTT assay is based on the metabolic reduction of MTT, a substance of yellow color, to dark-blue formazane crystals by mitochondrial dehydrogenases (e.g. succinate dehydrogenase). The crystals are dissolved, and the spectrometric absorption is measured at a suitable wave length.
The neurons were prepared by breaking ethanoltreated eggs and putting the embryos into a plastic dish. After decapitation, the hemispheres were removed and collected. Loose tissue and meningial membranes were removed, and the hemispheres were mechanically dissociated.
80 μl cell suspension containing 6×10^5 cells/ml nutrient medium were added to each well of the microtiter plate which already contained 80 μl of medium with or without the substances. The plates were kept at 37° C., 95% humidity and 5% CO2 without a change of media (up to 8 DIV).
The low serum medium contains 100 ml of DEMEM with 1 g of glucose/l, 2% fetal calf serum, 0.01% Gentamycin and 2 mM L-glutamine. The nutrient medium for the lesion assays contains 100 ml of DMEM with 4.5 g of glucose/l, 5% fetal calf serum, 0.01% gentamycin and 2 mM L-glutamine.
At DIV 8, the cells were treated with 20 μM of pre-aggregated β-amyloid peptide (Aβ25-35; Sigma) for 72 hours, or with 100 μM H2O2 for 24 h.

[3] = test system: isolated cortical neurons of chicken embryos; experiment: β-amyloid lesion assay, MTT viability of isolated cortical neurons; assay type: cell-based; conditions: 20 μM pre-aggregated β-amyloid peptide (Aβ25-35) for 72 hours, FIG. 2c
Method: as §1, §2, §3, §4, §5, §6

[4] = target: T1, Afamin; experiment: Scatchard-plot analysis of the binding of vitamin E to Afamin; conditions: FIG. 3
[5] = test system: glutamine synthetase (GS); experiment: 3-NP-induced reduction of glutamine synthetase (GS) activity in brain spheroids; assay type: cell-based; conditions: 5-day treatment with 3-NP (0.5 and 5 mM), Afamin 0.3 and 3 μg/ml without vitamin E, FIG. 1
Description: Because of the mechanistic and pathological similarities between 3-NP lesions and Hungington's Disease (HD), 3-NP has been proposed as an alternative HD-model. Malonate and 3-NP are inhibitors of the succinate dehydrogenase which produce an energy loss and lesions which are similar to those observed in HD. Systemic administration of 3-NP causes a progressive locomotory deterioration which corresponds to that of HD.
After the extraction of brain spheroids and a one-week culturing, D,L-alpha-tocopherol (0.1 mM) were added to the medium. Two weeks old spheroids were plated in a plate having six wells. Shortly after the exposure, the medium was replaced by 2 ml of fresh medium. The spheroids were exposed to 3-NP (0.5 and 5 mM, pH adjusted to 7 to 8), or to the protectors vitamin E (0.1 mM), glutathione (1 mM), DTT (0.25 mM), L-NAME (N(G)-nitro-L-[…]-methylester) (0.1 mM), Afamin (without vitamin E (0.3 and 3 μg/ml) or combinations of 3-NP with the protectors for 5 days. After 2 days, freshly prepared 3-NP and protectors were added to the medium (Mathews et al., J. Neurosci, 18(1) (1998), 156-163); Borlongan et al., Neurosci Biohav. Res. 21(3) (1997), 289-293).
The results are illustrated in FIG. 1. […] As mentioned before, this system with 3NP constitutes a recognized model for excitotoxicity and serves as a model for Huntington's Disease.

Row | Molecule | reduction of apoptosis / neuronal cell death in low serum medium [1] | reduction of damage / neuronal cell death by H2O2 [2] | reduction of damage / neuronal cell death by β-amyloid peptide [3] | theoretical maximum loading of an Afamin molecule [4] | protection of glutamine synthetase activity against inactivation by 3NP [5]
1 | Cc1c(C)c2c(c(C)c1O)CCC(C)(CCCC(C)CCCC(C)CCCC(C)C)O2 [vitamin E, D,L-alpha-tocopherol, reference compound] | capable of reducing the apoptosis | capable of reducing | capable of reducing | 18 molecules of vitamin E | –
2 | Afamin: 87 kDa protein which belongs to the albumin group; cloned and sequenced, also available in recombinant form (protein, UniProt P43652 22-599, looked up) Afamin: LPTQPRDIENFNSTQKFIEDNIEYITIIAFAQYVQEATFEEMEKLVKDMVEYKDRCMADKTLPECSKLPNNVLQEKICAMEGLPQKHNFSHCCSKVDAQRRLCFFYNKKSDVGFLPPFPTLDPEEKCQAYESNRESLLNHFLYEVARRNPFVFAPTLLTVAVHFEEVAKSCCEEQNKVNCLQTRAIPVTQYLKAFSSYQKHVCGALLKFGTKVVHFIYIAILSQKFPKIEFKELISLVEDVSSNYDGCCEGDVVQCIRDTSKVMNHICSKQDSISSKIKECCEKKIPERGQCIINSNKDDRPKDLSLREGKFTDSENVCQERDADPDTFFAKFTFEYSRRHPDLSIPELLRIVQIYKDLLRNCCNTENPPGCYRYAEDKFNETTEKSLKMVQQECKHFQNLGKDGLKYHYLIRLTKIAPQLSTEELVSLGEKMVTAFTTCCTLSEEFACVDNLADLVFGELCGVNENRTINPAVDHCCKTNFAFRRPCFESLKADKTYVPPPFSQDLFTFHADMCQSQNEELQRKTDRFLVNLVKLKHELTDEELQSLFTNFANVVDKCCKAESPEVCFNEESPKIGN | protects against neuronal cell death; also recorded: capable of reducing the apoptosis | protects against neuronal cell death; also recorded: capable of reducing | protects against neuronal cell death; also recorded: capable of reducing | – | by far the highest effect of all the tested substances
